Results from patent US20220339167A1, “HORMONE D (VITAMIN D) AND ITS DERIVATIVES FOR THE TREATMENT AND PREVENTION OF CANCER” (Industrial Technologies & Biotechnologies, priority 2019, published 2022).

Tests used:
HL-60 = details: cited from earlier work
normal colonic mucosa = details: six months; vitamin D3 800 IU daily with calcium 2000 mg daily; cited from earlier work
cancer = details: cited from earlier work
colorectal cancer = details: 400 IU vitamin D3 with 1000 mg elemental calcium as calcium carbonate; average seven years follow-up; cited from earlier work
nonmelanoma skin cancers = assay: oral hormone D3 treatment of nonmelanoma skin cancers; assay type: in vivo; details: twelve nonmelanoma skin cancers; oral intake, 466 IU daily, between 6 and 8 months
[1] = tested on: cancer or major cardiovascular events; details: 2000 IU daily for 5 years, initially healthy adults; cited from earlier work

Structure (SMILES) | cell differentiation (HL-60) | apoptosis in normal colonic mucosa (molecular markers) (normal colonic mucosa) | authors' conclusion on cancer prevention (cancer; high dose supplementation prescribed monthly) | participants with primary outcome of cancer (cancer; oral, initial bolus 200,000 IU then 100,000 IU monthly, up to 4 years, without calcium, placebo group 6.4%) | interaction between risk of colorectal cancer and supplementation (colorectal cancer) | outcome of treated nonmelanoma skin cancers (nonmelanoma skin cancers) | incidence of cancer or major cardiovascular events [1]
C=C1/C(=C\C=C2/CCC[C@]3(C)[C@@H]([C@H](C)CCCC(C)(C)O)CC[C@@H]23)C[C@@H](O)C[C@@H]1O [1α,25-dihydroxyvitamin D3] | induces HL-60 differentiation into macrophage-monocyte like cells | – | – | – | – | – | –
C=C1CC[C@H](O)C/C1=C/C=C1\CCC[C@]2(C)[C@@H]([C@H](C)CCCC(C)C)CC[C@@H]12 [hormone D3, cholecalciferol] | – | may enhance apoptosis in normal colonic mucosa | may no prevent cancer | 6.5% | no significant interaction | all of them were resolved completely | not reduce the incidence of cancer or major cardiovascular events
